The values that follow come from patent US20030017166A1, “Combination preparation for the therapy of immunological diseases” (priority 2001, published 2003).

A value given as a limit tells only on which side of the number the result lay.

In data set [1] the test system is contact allergy to nickel and cobalt (contact dermatitis). The data set can be described thus: Contact dermatitis induced with nickel or cobalt vaseline preparations in volunteer test subjects. The data set is classed as in vivo, human. The source says:
Contact dermatitis was selected as a model disease for the large number of T cell-mediated immune reactions (generally: overshooting damaging immune reactions) since it can be induced by applying the contact allergens to the skin and the severity of the inflammatory reaction and immune reaction can readily be assessed by observing the skin symptoms.
The contact allergies were induced by applying preparations in white vaseline. These vaseline preparations contained either 1% cobaltII chloride or 5% nickelII sulfate.
For inducing the contact dermatitis, the vaseline preparation was applied once daily to an area of approx. 2×2 cm^2, usually on the upper arm or the lower arm.
The contact dermatitis was subdivided into the following levels in accordance with the extent of the inflammatory reaction:
Level 1: very minor inflammatory reaction, slight reddening of the skin;
Level 2: minor inflammatory reaction, reddening of the skin and possible itching;
Level 3: slight inflammatory reaction, reddening and edematous swelling of the skin, itching;
Level 4: moderate inflammatory reaction, reddening, edematous swelling, vesicles or blister formation, itching;
Level 5: pronounced inflammatory reaction: reddening, edematous swelling, vesicles and blister formation, weeping erosions and possible incrustation.
The severity of the inflammatory reaction which occurred was controlled by administering Ultralan® tablets systemically. When the antigen-specific regulatory immune response was induced, the inflammatory reaction was kept in the range of levels 1 and 2 by administering fluocortolone (Ultralan®). If a contact dermatitis of level 3 or higher developed despite the administration of Ultralan®, the dose of Ultralan® was then increased up to the next dosage level. If required, the dose was increased once again 2 days after the last increase in the dose.
As soon as it was no longer possible to observe any symptoms of the contact dermatitis at a given dosage level of Ultralan®, the dose was reduced on the following day and subsequently maintained once again until all the symptoms of the contact allergy had disappeared, after which the dose of Ultralan was reduced once again until, finally, it was no longer necessary to administer any Ultralan®.
As a rule, the following gradations in the daily doses of Ultralan® were employed: 20 mg, 15 mg, 10 mg, 7.5 mg, 5 mg, 2.5 mg and 0 mg.
An appropriate blood level of leflunomide was achieved by means of a loading dose of 100 mg on the first three consecutive days of the leflunomide therapy; after that, the leflunomide dose was reduced to 20 mg per day. Unless otherwise stated, this dose of leflunomide was maintained for up to 30 days after the time point at which the administration of flucortolone was terminated.
Subsequently, the leflunomide was eliminated at an accelerated rate from the body by means of administering 3× daily doses of 8 grams of cholestyramine over a period of 10 days.
As described above, the antigen is applied to the skin once a day using a preparation prepared from white vaseline. As a rule, the antigen was administered up to the tenth day after the last administration of leflunomide.
In the investigations into the development of a regulatory immune response in connection with the contact dermatitis, a fresh exposure to the antigen against which a regulatory immune response had been developed was carried out no earlier than 1 month after the last contact with the antigen.

Data set [2] relates to allergic rhinitis/conjunctivitis against hazelnut pollen and grass pollen. The data set can be described thus: Allergic rhinitis/conjunctivitis on exposure to hazelnut pollen or grass pollen in patients. The data set is classed as in vivo, human. The source says:
The effect of the combination therapy on type I allergy (allergic conjunctivitis and rhinitis) was investigated since type I allergy is an antibody-induced disease which is regulated by T cells. […] In the allergy investigations, contact with the antigen took place aerogenically, by exposure to hazelnut pollen or the pollen of grasses.
First of all, the test subjects were exposed to the allergen pollens in order to verify the existence of the allergy.
After a month, the two test subjects were given a loading dose of in each case 100 mg of leflunomide on 3 consecutive days. The test subjects were then given a constant daily dose of 20 mg of leflunomide.
On the 4th day of the leflunomide administration, the test subjects were exposed to one of the two allergens.
After these 30 days, the leflunomide was eliminated from the body in an accelerated manner by means of the 3× daily administration of cholestyramine over a period of 10 days. During this accelerated elimination, the daily exposure to antigen was continued.
In addition, the test subjects were able to use vasoconstrictors, such as Otriven® nasal drops and Yxin® eyedrops, to alleviate acute symptoms.
Neomycin sulfate was used, at a concentration of 50 mg/ml in physiological sodium chloride solution, as an immunomodulatory substance, as eyedrops and as a metered nasal spray. During the allergen exposure (season of airborne pollen), the neomycin solution was initially administered every 3 hours during the day. As soon as symptoms of an allergic reaction, such as severe itching, tears, flow of nasal secretion or sneezing impulses, occurred, this inflammatory reaction was suppressed, within the first 5 days, by using the dexametasone eyedrops, the dexamethasone nasal spray, xylometazoline nasal drops and Yxin® eyedrops. The steroids and the vasoconstrictors were administered as required.

The test system of data set [3] is susceptibility to infection. The conditions noted are these: clinical investigations and investigations on experimental animals; cited from earlier work.
Another data set relates to rheumatoid arthritis. The conditions noted are these: monotherapy; cited from earlier work.

In the case of `C[C@@H]1C[C@H]2[C@@H]3C[C@H](F)C4=CC(=O)C=C[C@]4(C)[C@H]3[C@@H](O)C[C@]2(C)[C@H]1C(=O)CO` [Ultralan®, fluocortolone], the “contact dermatitis while Ultralan was being reduced stepwise” value in data set [1] (Investigation 1.1, 4 test subjects, Ultralan alone, no leflunomide, continued allergen exposure) is “reappeared”. Besides, the “time to complete disappearance of contact allergy symptoms” value in data set [1] (Investigation 1.1, Ultralan added to leflunomide and allergen, allergy adjusted to grade 1-2) was 3 to 5 days. Further, the “symptoms of contact allergy after brief Ultralan suppression and discontinuation” value in data set [1] (Investigation 1.5, allergen continued for further 2 weeks after Ultralan discontinued) is given as “no symptoms of any contact allergy appeared”. Further, the “symptoms of contact allergy after abrupt Ultralan discontinuation” value in data set [1] (Investigation 2.1, 2 test subjects, fully suppressive Ultralan dose for 4 weeks with leflunomide and allergen, one day after discontinuation) is “Massive symptoms of the contact allergy developed”. Besides, the “time to disappearance of symptoms” value in data set [1] (Investigation 3.2, single administration of 5 mg Ultralan with simultaneous leflunomide) is recorded as “one”. Besides, the “dose of Ultralan sufficient to restrict the symptoms of the contact allergy to levels 1 to 2” value in data set [1] (systemic tablets, as a rule) is given as “at most 10 mg/day”. The “allergic symptoms immediately after antigen exposure under Ultralan and vasoconstrictors” value in data set [2] (Investigation 4.1, 10 mg Ultralan, Otriven nasal drops, Yxin eyedrops, with leflunomide) was “only slight symptoms of an allergic reaction”. Moreover, the “time to complete disappearance of allergy symptoms directly after antigen exposure” value in data set [2] (Investigation 4.1, constant treatment with Ultralan and leflunomide) is reported as not above 4 days.

As for `C[C@@H]1C[C@H]2[C@@H]3CCC4=CC(=O)C=C[C@]4(C)[C@@]3(F)[C@@H](O)C[C@]2(C)[C@@]1(O)C(=O)CO` [dexamethasone], the “requirement for dexamethasone administrations, initial average” value in data set [2] (Investigation 5.1, under neomycin solution 50 mg/ml every 3 hours, start of first 5 days) was determined as 4 administrations per day. Moreover, the “requirement for dexamethasone administrations, after decrease” value in data set [2] (Investigation 5.1, under neomycin solution, within the first 5 days) is on record as 2 administrations per day.

As to `Cc1oncc1C(=O)Nc1ccc(C(F)(F)F)cc1` [leflunomide, N-(4-trifluoromethylphenyl)-5-methylisoxazole-4-carboxamide], in data set [1] (Investigation 1.1, 4 weeks after end of treatment cycle, 2 weeks provocation), the “symptoms of contact allergy on provocation with the antigen given during leflunomide” value was “did not appear in any of the test subjects”. Further, in data set [1] (Investigation 1.1, after steroids completely discontinued), the “symptoms of the contact allergy during 30 days of daily leflunomide and antigen” value is recorded as “not possible to observe any symptoms of the contact allergy”. The “symptoms of the contact allergy during accelerated elimination of leflunomide” value in data set [1] (Investigation 1.1, cholestyramine over 10 days, continued allergen exposure) is recorded as “not observed in any of the test subjects”. For the same compound, the “level of skin reaction (contact dermatitis levels 1-5)” value in data set [1] (Investigation 1.1, leflunomide 100 mg x 3 days then 20 mg/day, allergen from 4th day, within 2 days, before steroids) lay within 3 to 4 level. The “level of contact dermatitis on exposure to the antigen not given during leflunomide” value in data set [1] (Investigation 1.2, 4 weeks later, within 2 days) lay within 3 to 4 level. The “symptoms of contact allergy to the leflunomide-associated allergen applied on still inflamed skin” value in data set [1] (Investigation 1.3, allergen switched on 3rd day) is given as “persisted as long as the contact allergen was being administered”. In data set [1] (Investigation 1.4, after 4 weeks break, exposure period of 2 weeks), the “contact allergy on re-exposure to the leflunomide-associated antigen after inflammation regressed” value is on record as “did not react with any contact allergy”. Also, the “symptoms of contact allergy after switch to the leflunomide-associated antigen under inflammation” value in data set [1] (Investigation 1.5, period of 2 weeks) is reported as “persisted”. Also, the “level of contact allergy on exposure to the antigen not given during leflunomide” value in data set [1] (Investigation 1.5, within 2 days) fell in the range of 3 to 4 level. In data set [1] (Investigation 1.6, 4 weeks later, first 2 weeks of exposure), the “symptoms of contact allergy on exposure to the leflunomide-associated allergen” value is recorded as “No symptoms of a contact allergy were observed”. In addition, the “time to disappearance of inflammatory reactions after UV-A on the side with contact allergen” value in data set [1] (Investigation 1.6, continued allergen exposure) was not below 7 days. Also, the “symptoms of inflammation after UV-A irradiation on arm with contact allergen versus arm without” value in data set [1] (Investigation 1.6, identical irradiation of both arms) is “somewhat stronger”. Moreover, in data set [1] (Investigation 3.1, shortened 2-week phase, days following first reddening), the “course of contact allergy on allergen exposure” value is given as “increasing symptoms of a contact allergy”. Besides, the “onset of slight reddening after beginning allergen exposure” value in data set [1] (Investigation 3.1, steroid-free leflunomide plus allergen phase shortened from 30 days to 2 weeks, exposure 4 weeks after discontinuing leflunomide) lay in the range of 3 to 4 days. Further, in data set [1] (Investigation 3.3, leflunomide and contact allergen continued for 20 days, then accelerated elimination), the “regulatory immune response 4 weeks after treatment” value was “a stable antigen-specific regulatory immune response had developed”. In addition, the susceptibility to infection result in data set [3] was “does not increase susceptibility to infection”. The “effect on rheumatoid arthritis when administered on its own” value in the data set on rheumatoid arthritis is “able to reduce the progression of rheumatoid arthritis but is not able to cure the disease”. Besides, the “reaction on first allergen exposure under leflunomide” value in data set [2] (Investigation 4.1, 2 test subjects, 4th day of leflunomide, before steroid) is given as “reacted immediately with allergic symptoms”. The “allergy symptoms during steroid-free leflunomide plus antigen phase and accelerated elimination” value in data set [2] (Investigation 4.1, 30 days plus 10 days cholestyramine, daily antigen) is “no symptoms of an allergy appeared”. In data set [2] (Investigation 4.1, after one month break, daily exposure over 2 weeks), the “allergic symptoms on re-exposure to the allergen given during leflunomide” value is recorded as “did not develop any symptoms of an allergic reaction”. In addition, in data set [2] (Investigation 4.2, grass pollen dust 1x daily, within 2 days), the “allergy symptoms on exposure to the antigen not given during leflunomide” value is on record as “developed symptoms of an allergy”. The “allergy symptoms to the leflunomide-associated antigen under inflammatory conditions” value in data set [2] (Investigation 4.3, 3rd and 4th day, only leflunomide-associated antigen administered) is recorded as “Symptoms of an allergy developed”. The “allergy symptoms on re-exposure to the leflunomide-associated antigen” value in data set [2] (Investigation 4.4, after a further 4 weeks, 2 weeks of daily exposure) was “No symptoms of an allergy developed”.

Turning to Neomycin sulfate, the “allergy symptoms on intensified antigen exposure during neomycin” value in data set [2] (Investigation 5.1, 2 test subjects, direct exposure to hazelnut pollen twice daily, no dexamethasone or cromoglycic acid) is reported as “no allergy symptoms appeared in either of the test subjects”. For the same compound, in data set [2] (Investigation 5.1, after a month break, daily exposure for 2 weeks), the “allergy symptoms on re-exposure to the allergen given during neomycin” value is given as “did not exhibit any allergy symptoms”. Moreover, the “allergy symptoms on exposure to the antigen not given during neomycin” value in data set [2] (Investigation 5.2, dust of grass pollens 1x daily, within 2 days) is “developed symptoms of an allergy”. Also, in data set [2] (Investigation 5.3, 3rd and 4th day, only neomycin-associated antigen administered), the “allergy symptoms to the neomycin-associated antigen under inflammatory conditions” value was “Symptoms of an antigy developed”. The “allergy symptoms on re-exposure to the neomycin-associated antigen” value in data set [2] (Investigation 5.4, after another break of 4 weeks, 2 weeks of daily exposure) is recorded as “had not developed any allergy symptoms”.
